# Legend:
# HT-29 [1] = test: Cytotoxicity against human HT-29 cells assessed as inhibition of cell growth by MTT assay; type: functional, cell-based
# 518A2 [2] = test: Potency index, ratio of vorinostat IC50 to test compound IC50 for cytotoxicity against human 518A2 cells; type: functional
# EA.hy 926 = test: Potency index, ratio of vorinostat IC50 to test compound IC50 for cytotoxicity against human EA.hy 926 cells; type: functional
# DLD-1 [3] = test: Potency index, ratio of vorinostat IC50 to test compound IC50 for cytotoxicity against human DLD-1 cells; type: functional
# KB-V1 [4] = test: Cytotoxicity against human KB-V1 cells assessed as inhibition of cell growth by MTT assay; type: functional, cell-based
# DLD-1 [5] = test: Cytotoxicity against human DLD-1 cells assessed as inhibition of cell growth by SRB assay; type: functional, cell-based
# [6] = Selectivity index, ratio of IC50 for cytotoxicity against human HDFa cells to IC50 for cytotoxicity against human 518A2 cells; type: toxicity, cell-based; settings: HDFa cells and 518A2 cells, pooled result: one value given for 6 cell lines, strains, targets or settings, read-out: Ratio IC50
# 518A2 [7] = test: Cytotoxicity against human 518A2 cells assessed as inhibition of cell growth by MTT assay; type: functional, cell-based
# HT-29 [8] = test: Potency index, ratio of vorinostat IC50 to test compound IC50 for cytotoxicity against human HT-29 cells; type: functional
# KB-V1 [9] = test: Potency index, ratio of vorinostat IC50 to test compound IC50 for cytotoxicity against human KB-V1 cells; type: functional
# MCF7 [10] = test: Cytotoxicity against human MCF7 cells assessed as inhibition of cell growth by MTT assay; type: functional, cell-based
# [11] = Cytotoxicity against human HDFa cells assessed as inhibition of cell proliferation by MTT assay; type: toxicity, cell-based
# MCF7 [12] = test: Potency index, ratio of vorinostat IC50 to test compound IC50 for cytotoxicity against human MCF7 cells; type: functional
# NCI-H1299 = test: Cytotoxicity against human NCI-H1299 cells assessed as inhibition of cell growth by MTT assay; type: functional, cell-based
# HepG2 = test: Cytotoxicity against human HepG2 cells assessed as inhibition of cell growth by MTT assay; type: functional, cell-based
# SMMC-7721 = test: Cytotoxicity against human SMMC-7721 cells assessed as inhibition of cell growth by MTT assay; type: functional, cell-based
# HCT-116 [13] = test: Cytotoxicity against human HCT-116 cells assessed as inhibition of cell growth by MTT assay; type: functional, cell-based
# [14] = Half life in CD1 mouse at 2 mg/kg, iv; type: ADME, organism-based; settings: in vivo
# [15] = AUCinfinity in CD1 mouse at 2 mg/kg, iv; type: ADME, organism-based; parameters: dose 2 mg/kg, route iv; settings: in vivo
# [16] = Cmax in CD1 mouse at 2 mg/kg, iv; type: ADME, organism-based; parameters: dose 2 mg/kg, route iv; settings: in vivo
# [17] = Clearance in CD1 mouse at 2 mg/kg, iv; type: ADME, organism-based; settings: in vivo
# PC-3 = test: Cytotoxicity against human PC-3 cells assessed as inhibition of cell growth by MTT assay; type: functional, cell-based
# Histone deacetylase 1 = Histone deacetylase 1 (Homo sapiens, UniProt Q13547); test: Inhibition of HDAC1 (unknown origin)
# A549 [18] = test: Cytotoxicity against human A549 cells assessed as inhibition of cell growth by MTT assay; type: functional, cell-based
# [19] = Cytotoxicity against African green monkey Vero cells assessed as inhibition of cell growth by MTT assay; type: toxicity, cell-based, Chlorocebus sabaeus
# MDA-MB-231 [20] = test: Cytotoxicity against human MDA-MB-231 cells assessed as inhibition of cell growth by MTT assay; type: functional, cell-based
# [21] = biological target: T1, Protein deacetylase HDAC6 (Homo sapiens, UniProt Q9UBN7); test: Inhibition of HDAC6 (unknown origin)
# T1 sequence (Q9UBN7 whole entry): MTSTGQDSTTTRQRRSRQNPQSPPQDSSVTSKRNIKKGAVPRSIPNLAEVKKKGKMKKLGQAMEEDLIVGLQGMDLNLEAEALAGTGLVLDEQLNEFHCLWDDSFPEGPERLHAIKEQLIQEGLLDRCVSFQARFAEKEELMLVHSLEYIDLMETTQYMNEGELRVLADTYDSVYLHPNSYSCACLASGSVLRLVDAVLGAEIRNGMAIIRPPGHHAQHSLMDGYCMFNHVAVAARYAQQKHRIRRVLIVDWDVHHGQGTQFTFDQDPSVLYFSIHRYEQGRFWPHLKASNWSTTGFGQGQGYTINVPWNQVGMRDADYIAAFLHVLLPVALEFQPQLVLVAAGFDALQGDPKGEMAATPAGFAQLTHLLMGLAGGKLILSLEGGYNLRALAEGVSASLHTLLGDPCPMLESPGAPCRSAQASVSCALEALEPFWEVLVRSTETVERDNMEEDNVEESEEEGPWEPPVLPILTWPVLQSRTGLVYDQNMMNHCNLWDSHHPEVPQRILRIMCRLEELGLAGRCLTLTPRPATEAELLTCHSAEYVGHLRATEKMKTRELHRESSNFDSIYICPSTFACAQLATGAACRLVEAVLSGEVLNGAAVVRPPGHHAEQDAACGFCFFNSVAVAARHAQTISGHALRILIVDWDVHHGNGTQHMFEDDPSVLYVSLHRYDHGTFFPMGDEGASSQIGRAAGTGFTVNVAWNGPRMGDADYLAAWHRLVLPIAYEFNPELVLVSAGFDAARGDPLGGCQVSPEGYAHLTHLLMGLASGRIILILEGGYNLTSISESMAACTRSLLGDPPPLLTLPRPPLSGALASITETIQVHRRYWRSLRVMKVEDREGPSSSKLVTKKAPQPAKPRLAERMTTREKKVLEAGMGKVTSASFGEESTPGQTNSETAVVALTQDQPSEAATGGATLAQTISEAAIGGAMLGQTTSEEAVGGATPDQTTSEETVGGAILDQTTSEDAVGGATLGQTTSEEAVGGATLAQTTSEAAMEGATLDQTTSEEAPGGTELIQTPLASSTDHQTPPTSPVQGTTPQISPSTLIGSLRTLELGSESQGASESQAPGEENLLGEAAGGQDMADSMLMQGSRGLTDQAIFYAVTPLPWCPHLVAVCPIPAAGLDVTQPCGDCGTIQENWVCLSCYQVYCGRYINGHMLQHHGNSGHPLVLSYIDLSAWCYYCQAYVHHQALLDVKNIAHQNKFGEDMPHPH
# [22] = Cytotoxicity against human RWPE-1 cells assessed as inhibition of cell growth by MTT assay; type: toxicity, cell-based
# MDA-MB-231 [23] = test: animal or person; type: functional, Homo sapiens; settings: Mus musculus, route po, read-out: TGI
# Description: Antitumor activity against human MDA-MB-231 cells xenografted in mouse assessed as tumor growth inhibition at 25 mg/kg, po relative to control
# T47D = test: Cytotoxicity against human T47D cells assessed as inhibition of cell growth by MTS assay; type: functional, cell-based
# MCF7 [24] = test: Cytotoxicity against human MCF7 cells assessed as inhibition of cell growth by MTS assay; type: functional, cell-based
# MDA-MB-231 [25] = test: Cytotoxicity against human MDA-MB-231 cells assessed as inhibition of cell growth by MTS assay; type: functional, cell-based
# Histone deacetylase 2 = Histone deacetylase 2 (Homo sapiens, UniProt Q92769); test: Inhibition of HDAC2 (unknown origin)
# ASPC1 [26] = test: Cytotoxicity against human ASPC1 cells assessed as inhibition of cell growth by SRB assay; type: functional, cell-based
# MDA-MB-231 [27] = test: Cytotoxicity against human MDA-MB-231 cells assessed as inhibition of cell growth by SRB assay; type: functional, cell-based
# Histone deacetylase 3 = Histone deacetylase 3 (Homo sapiens, UniProt O15379); test: Inhibition of HDAC3 (unknown origin)
# HCT-116 [28] = test: Antitumor activity against human HCT-116 cells xenografted in mouse assessed as tumor growth inhibition at 15 mg/kg, iv relative to control; type: functional; settings: read-out: TGI
# A549 [29] = test: Cytotoxicity against human A549 cells assessed as inhibition of cell growth by SRB assay; type: functional
# ASPC1 [30] = test: Cytotoxicity against human ASPC1 cells assessed as inhibition of cell growth by MTT assay; type: functional, cell-based
# HCT-116 [31] = test: Cytotoxicity against human HCT-116 cells assessed as inhibition of cell growth by SRB assay; type: functional, cell-based
# Histone deacetylase 1, sequence (Q13547 whole entry): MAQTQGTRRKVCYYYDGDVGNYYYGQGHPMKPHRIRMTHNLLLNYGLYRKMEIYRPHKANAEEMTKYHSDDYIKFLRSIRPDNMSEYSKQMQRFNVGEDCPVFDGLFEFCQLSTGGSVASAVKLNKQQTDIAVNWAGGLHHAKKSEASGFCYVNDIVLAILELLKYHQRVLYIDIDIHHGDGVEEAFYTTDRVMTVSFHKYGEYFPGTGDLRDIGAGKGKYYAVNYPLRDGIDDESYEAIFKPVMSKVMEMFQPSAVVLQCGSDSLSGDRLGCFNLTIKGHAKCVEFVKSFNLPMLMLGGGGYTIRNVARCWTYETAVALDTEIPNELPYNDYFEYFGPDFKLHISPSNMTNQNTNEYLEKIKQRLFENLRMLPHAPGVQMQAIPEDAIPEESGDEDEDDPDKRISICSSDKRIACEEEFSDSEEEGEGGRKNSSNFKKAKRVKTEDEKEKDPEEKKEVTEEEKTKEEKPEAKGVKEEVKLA
# Histone deacetylase 2, sequence (Q92769 whole entry): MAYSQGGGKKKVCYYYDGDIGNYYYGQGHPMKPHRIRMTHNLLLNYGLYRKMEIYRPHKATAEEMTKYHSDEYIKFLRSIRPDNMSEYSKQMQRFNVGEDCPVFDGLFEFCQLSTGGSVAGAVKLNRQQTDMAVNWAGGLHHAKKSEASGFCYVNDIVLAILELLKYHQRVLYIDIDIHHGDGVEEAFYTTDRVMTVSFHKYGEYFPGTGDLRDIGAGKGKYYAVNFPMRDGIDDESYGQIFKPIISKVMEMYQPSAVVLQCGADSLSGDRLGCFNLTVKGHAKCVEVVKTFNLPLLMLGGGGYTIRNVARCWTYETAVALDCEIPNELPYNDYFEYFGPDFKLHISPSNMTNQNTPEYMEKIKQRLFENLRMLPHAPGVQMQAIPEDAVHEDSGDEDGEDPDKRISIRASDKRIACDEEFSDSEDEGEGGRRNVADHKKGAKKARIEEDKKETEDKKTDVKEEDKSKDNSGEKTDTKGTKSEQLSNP
# Histone deacetylase 3, sequence (O15379 whole entry): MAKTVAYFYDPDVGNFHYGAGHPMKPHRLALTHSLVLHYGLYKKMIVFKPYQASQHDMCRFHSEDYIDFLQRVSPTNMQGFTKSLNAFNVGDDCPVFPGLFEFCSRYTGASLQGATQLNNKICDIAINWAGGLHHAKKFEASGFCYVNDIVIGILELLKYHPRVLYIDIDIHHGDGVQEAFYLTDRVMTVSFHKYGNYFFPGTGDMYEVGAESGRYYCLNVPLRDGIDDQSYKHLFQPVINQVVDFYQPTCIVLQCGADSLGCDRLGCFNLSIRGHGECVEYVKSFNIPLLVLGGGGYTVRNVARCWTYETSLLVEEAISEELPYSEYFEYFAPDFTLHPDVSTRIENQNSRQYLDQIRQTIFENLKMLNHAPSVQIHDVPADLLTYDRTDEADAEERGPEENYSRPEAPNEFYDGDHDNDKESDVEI
smiles,measurement,setting,value
COc1ccc(-c2ocnc2-c2cc(Br)c(OC)c(OC)c2)cc1OCCCC(=O)NO,IC50,HT-29 [1],18 nM
same,Ratio IC50,518A2 [2],1.2
same,Ratio IC50,EA.hy 926,1.2
same,Ratio IC50,DLD-1 [3],1.2
same,IC50,KB-V1 [4],18 nM
same,IC50,DLD-1 [5],18 nM
same,selectivity ratio,[6],8.5
same,IC50,518A2 [7],18 nM
same,Ratio IC50,HT-29 [8],1.2
same,Ratio IC50,KB-V1 [9],1.2
same,IC50,MCF7 [10],18 nM
same,IC50,[11],23.9 µM
same,Ratio IC50,MCF7 [12],1.2
COc1ccc(-c2nc(C(=O)N(CCN(C)C)Cc3ccc(C(=O)NO)cc3)cc3c2[nH]c2ccccc23)cc1,IC50,NCI-H1299,1600 nM
same,IC50,HepG2,1600 nM
same,IC50,SMMC-7721,1600 nM
same,IC50,HCT-116 [13],1600 nM
O=C(NO)C(c1ccccc1)c1c(-c2ccc3ccccc3c2)[nH]c2ccccc12 (stereo not drawn),half-life,[14],99 min
same,AUC(0-inf),[15],1090 ng·h/mL
same,Cmax,[16],2350 ng/mL
same,clearance,[17],30.7 mL/min/kg
N#Cc1cccc(-c2cn(CCCCCCn3cccc(/C=C/C(=O)NO)c3=O)nn2)c1,IC50,PC-3,600 nM
same,IC50,Histone deacetylase 1,35 nM
same,IC50,HepG2,600 nM
same,IC50,A549 [18],600 nM
same,IC50,[19],> 50 µM
same,IC50,MDA-MB-231 [20],600 nM
same,IC50,[21],49 nM
same,IC50,[22],> 50 µM
CCCCc1nc2cc(/C=C/C(=O)NO)ccc2n1CCN(CC)CC [PRACINOSTAT],inhibition in vivo at 25 mg/kg,MDA-MB-231 [23],50%
same,IC50,T47D,5.34 µM
same,IC50,MCF7 [24],5.34 µM
same,IC50,MDA-MB-231 [25],5.34 µM
Cc1[nH]c2ccccc2c1CCNS(=O)(=O)c1ccc(/C=C/C(=O)NO)cc1,IC50,Histone deacetylase 2,5.13 nM
same,IC50,ASPC1 [26],29 nM
same,IC50,MDA-MB-231 [27],29 nM
same,IC50,Histone deacetylase 1,5.13 nM
same,IC50,Histone deacetylase 3,5.13 nM
same,inhibition in vivo at 15 mg/kg,HCT-116 [28],50.7%
same,GI50,A549 [29],29 nM
same,IC50,[21],5.13 nM
same,IC50,ASPC1 [30],490 nM
same,IC50,HCT-116 [31],29 nM

# From ChEMBL document CHEMBL5230103, “Hydroxamic acid hybrids as the potential anticancer agents: An Overview” (Eur J Med Chem, 2020)
